In paper PMC9116245, “New 1,2,3-triazole linked ciprofloxacin-chalcones induce DNA damage by inhibiting human topoisomerase I& II and tubulin polymerization” (Journal of Enzyme Inhibition and Medicinal Chemistry, 2022):
Like-named read-outs stand apart in the source and are kept apart here.

Tests used:
Human topoisomerase I = target: T1, Human topoisomerase I (Homo sapiens, UniProt P11387); test: DNA relaxation assay (gel electrophoresis); format: biochemical; settings: compounds at their IC50 values
T1 construct: purchased Topogen Inc., USA TG-1015
T1 sequence (P11387 1-765): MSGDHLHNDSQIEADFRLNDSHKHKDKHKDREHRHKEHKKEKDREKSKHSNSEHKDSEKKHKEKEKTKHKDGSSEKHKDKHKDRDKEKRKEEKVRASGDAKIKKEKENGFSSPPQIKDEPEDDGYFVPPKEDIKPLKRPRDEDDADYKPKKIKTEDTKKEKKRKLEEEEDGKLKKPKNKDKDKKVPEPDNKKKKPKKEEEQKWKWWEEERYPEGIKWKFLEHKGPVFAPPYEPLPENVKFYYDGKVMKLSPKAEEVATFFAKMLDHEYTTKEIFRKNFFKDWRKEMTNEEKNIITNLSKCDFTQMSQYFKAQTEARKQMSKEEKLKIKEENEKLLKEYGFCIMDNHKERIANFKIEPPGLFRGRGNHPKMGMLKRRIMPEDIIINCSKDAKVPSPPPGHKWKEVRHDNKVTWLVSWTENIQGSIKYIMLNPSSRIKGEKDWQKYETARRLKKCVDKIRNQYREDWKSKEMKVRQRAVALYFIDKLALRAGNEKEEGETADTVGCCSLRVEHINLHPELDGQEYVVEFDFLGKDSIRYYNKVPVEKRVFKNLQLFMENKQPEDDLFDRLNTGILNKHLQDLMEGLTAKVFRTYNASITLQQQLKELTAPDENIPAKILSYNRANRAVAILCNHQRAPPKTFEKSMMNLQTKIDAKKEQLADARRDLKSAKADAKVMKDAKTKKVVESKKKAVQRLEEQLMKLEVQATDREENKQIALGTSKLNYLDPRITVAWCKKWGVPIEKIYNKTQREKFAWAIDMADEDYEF
Description: Based on our design, we hypothesised that the new CP hybrids 4a-j could act as multi-target ligands that can block the catalytic activity of topoisomerases I (Topo-I), topoisomerases (Topo-II), and inhibit tubulin polymerisation as possible targets for the anti-proliferative activity. First, the Topo-I activity was tested by the DNA relaxation assay. The supercoiled plasmid has been utilised as a substrate in the relaxation assay to study the inhibition of DNA Topo-I activity. […] Two different assays were used to examine the inhibitory activity of IC50 of the CP hybrids against Human topoisomerase I. Firstly; Gel electrophoresis-based assay (DNA relaxation assay) was performed following the manufacturer's protocol (TG-1015, Topogen Inc., USA). Secondly, the inhibitory activity of compounds 4a, 4b, 4e, 4i, 4j, and camptothecin to human topoisomerase I was analysed by Human DNA Topoisomerase I Assay Kit (ProFoldin, Hudson, MA, USA) with recombinant human DNA topoisomerase I (Sigma-Aldrich) according to the manufacturer’s protocol.

polymerised tubulin = test: Western blot of polymerised tubulin in HCT116 cells; format: cell-based, human; settings: HCT116, IC50 values of compounds
Description: The process of tubulin polymerisation in the cells is important for the completion of mitosis and is targeted for cancer treatment. It has been reported that the suppression of tubulin polymerisation will arrest the cells at the G2/M and it eventually leads to cell death. To test the tubulin-disruptive effect of the CP hybrids, HCT116 cells were analysed by immunocytochemistry. HCT116 cells were incubated for 36 h with IC50 of the CP hybrids (4a, 4b, 4e, 4i, and 4j), nocodazole (a well-known tubulin polymerisation inhibitor, as a positive control), DMSO or Paclitaxel (a well-known tubulin polymerisation inducer, as a negative control), and tubulin was visualised by immunofluorescence microscopy. An antibody for α-tubulin was used. […] Moreover, a Western blot was performed to verify the tubulin polymerisation inhibition ability of the synthesised compounds (Figure 8(B)). The level of polymerised tubulin was decreased in HCT116 cells treated with IC50 values of CP hybrids 4a, 4b, 4e, 4i, 4j, or nocodazole.
Western blotting analysis for HCT116 cells was performed according to the reported procedure in the literature[77–79] to determine the effects of CP hybrids; 4a, 4b, 4e, 4i, and 4j on the expression of polymerised tubulin, γH2AX, p-ATR, p-CHK1, and p-Cdc25C by using the appropriate antibody. See Supplementary Appendix A.

SNB-75 = format: cell-based; settings: Homo sapiens
K-562 = format: cell-based, human
786-0 = format: cell-based; settings: Homo sapiens
NCI-H226 = format: cell-based; settings: Homo sapiens
SR = format: cell-based, human
ACHN = format: cell-based; settings: Homo sapiens
NCI-H460 = format: cell-based; settings: Homo sapiens
M14 = format: cell-based; settings: Homo sapiens
HCC-2998 = format: cell-based; settings: Homo sapiens
SNB-19 = format: cell-based; settings: Homo sapiens
MCF7 = format: cell-based, human
COLO 205 = format: cell-based; settings: Homo sapiens
SN12C = format: cell-based; settings: Homo sapiens
SK-MEL-5 = format: cell-based; settings: Homo sapiens
UACC-257 = format: cell-based; settings: Homo sapiens
HL-60(TB) = format: cell-based; settings: Homo sapiens
OVCAR-3 = format: cell-based; settings: Homo sapiens
A549/ATCC = format: cell-based; settings: Homo sapiens
[1] = read-out: LC50 (the source's name)

O=C(/C=C/c1cccc(Cl)c1)c1ccc(-n2cc(CN3CCN(c4cc5c(cc4F)c(=O)c(C(=O)O)cn5C4CC4)CC3)nn2)cc1 [Compound 4b, (E)-7-(4-((1–(4-(3-(3-chlorophenyl)acryloyl)phenyl)-1H-1,2,3-triazol-4-yl)methyl)piperazin-1-yl)-1-cyclopropyl-6-fluoro-4-oxo-1,4-dihydroquinoline-3-carboxylic acid]
Topo-I catalytic activity, DNA relaxation (Human topoisomerase I): could inhibit Topo-I catalytic activity
level of polymerised tubulin, Western blot (polymerised tubulin): decreased

COc1cc(/C=C/C(=O)c2ccc(-n3cc(CN4CCN(c5cc6c(cc5F)c(=O)c(C(=O)O)cn6C5CC5)CC4)nn3)cc2)cc(OC)c1OC [Compound 4j, (E)-1-cyclopropyl-6-fluoro-4-oxo-7–(4-((1–(4-(3-(3,4,5-trimethoxyphenyl)acryloyl)phenyl)-1H-1,2,3-triazol-4-yl)methyl)piperazin-1-yl)-1,4-dihydroquinoline-3-carboxylic acid]
GI50 (SNB-75): 1490 nM
CC50 (SNB-75; [1]): > 100000 nM
Topo-I catalytic activity, DNA relaxation (Human topoisomerase I): could inhibit Topo-I catalytic activity
GI50 (K-562): 970 nM
GI50 (K-562; Homo sapiens, K562): 977 nM
CC50 (K-562; Homo sapiens, K562, read-out: LC50 (the source's name)): > 100000 nM
GI50 (786-0): 1670 nM
GI50 (NCI-H226): 2390 nM
CC50 (NCI-H226; [1]): > 100000 nM
GI50 (SR): 430 nM
GI50 (SR; Homo sapiens): 434 nM
CC50 (SR; Homo sapiens, read-out: LC50 (the source's name)): > 100000 nM
GI50 (ACHN): 3500 nM
CC50 (ACHN; [1]): > 100000 nM
GI50 (NCI-H460): 2400 nM
CC50 (NCI-H460; [1]): > 100000 nM
GI50 (M14): 2490 nM
CC50 (M14; [1]): > 100000 nM
GI50 (HCC-2998): 1730 nM
GI50 (SNB-19): 4520 nM
CC50 (SNB-19; [1]): > 100000 nM
level of polymerised tubulin, Western blot (polymerised tubulin): decreased
GI50 (MCF7; Homo sapiens, MCF7, MCF7): 396 nM
CC50 (MCF7; Homo sapiens, MCF7, read-out: LC50 (the source's name)): > 100000 nM
GI50 (MCF7; MCF7): 390 nM
GI50 (COLO 205): 5080 nM
CC50 (COLO 205; [1]): > 100000 nM
GI50 (SN12C): 2660 nM
CC50 (SN12C; [1]): 46200 nM
GI50 (SK-MEL-5): 2640 nM
CC50 (SK-MEL-5; [1]): > 100000 nM
GI50 (UACC-257): 6340 nM
LC50 (UACC-257): > 100000 nM
GI50 (HL-60(TB)): 3180 nM
CC50 (HL-60(TB); [1]): > 100000 nM
GI50 (OVCAR-3): 1840 nM
CC50 (OVCAR-3; [1]): > 100000 nM
GI50 (A549/ATCC): 2980 nM
CC50 (A549/ATCC; [1]): > 100000 nM

O=C(/C=C/c1ccc(F)cc1)c1ccc(-n2cc(CN3CCN(c4cc5c(cc4F)c(=O)c(C(=O)O)cn5C4CC4)CC3)nn2)cc1 [Compound 4e, (E)-1-cyclopropyl-6-fluoro-7–(4-((1–(4-(3-(4-fluorophenyl)acryloyl)phenyl)-1H-1,2,3-triazol-4-yl)methyl)piperazin-1-yl)-4-oxo-1,4-dihydroquinoline-3-carboxylic acid]
Topo-I catalytic activity, DNA relaxation (Human topoisomerase I): could inhibit Topo-I catalytic activity
level of polymerised tubulin, Western blot (polymerised tubulin): decreased

O=C(/C=C/c1ccccc1)c1ccc(-n2cc(CN3CCN(c4cc5c(cc4F)c(=O)c(C(=O)O)cn5C4CC4)CC3)nn2)cc1 [Compound 4a, (E) 7-(4-((1–(4-Cinnamoylphenyl)-1H-1,2,3-triazol-4-yl)methyl)piperazin-1-yl)-1-cyclopropyl-6-fluoro-4-oxo-1,4-dihydroquinoline-3-carboxylic acid]
Topo-I catalytic activity, DNA relaxation (Human topoisomerase I): could inhibit Topo-I catalytic activity
level of polymerised tubulin, Western blot (polymerised tubulin): decreased

COc1ccc(/C=C/C(=O)c2ccc(-n3cc(CN4CCN(c5cc6c(cc5F)c(=O)c(C(=O)O)cn6C5CC5)CC4)nn3)cc2)cc1OC [Compound 4i, (E)-1-cyclopropyl-7-(4-((1-(4-(3–(3,4-dimethoxyphenyl)acryloyl)phenyl)-1H-1,2,3-triazol-4-yl)methyl)piperazin-1-yl)-6-fluoro-4-oxo-1,4-dihydroquinoline-3-carboxylic acid]
Topo-I catalytic activity, DNA relaxation (Human topoisomerase I): could inhibit Topo-I catalytic activity
level of polymerised tubulin, Western blot (polymerised tubulin): decreased
